Columns and labels:
CD8+ T cells = experiment: Cytokine and cytolytic granule production of CD8+ T cells stimulated with plate-bound anti-CD3/CD28; format: cell-based, mouse; settings: pretreated with compound vs vehicle (DMSO); stimulated with 5 μg/ml plate-bound anti-CD3/CD28
Protocol: Peripheral T cells were isolated from mouse spleen and draining lymph nodes by a CD8^+ or CD4^+ T cell negative selection kit (Stem cell). To analyse the tumour-infiltrating T cells, tumours were first digested by collagenase IV (sigma), and tumour-infiltrating leukocytes were isolated by 40-70% percoll (GE) gradient centrifugation. To measure the effector function of CD8^+ T cells, the isolated cells were first stimulated with 1 μM ionomycin and 50 ng/ml PMA for 4 hours in the presence of 5 μg/ml BFA, and then stained with PERCP-α-CD8a. Next, cells were fixed with 4% PFA and stained with FITC-α-Granzyme B, APC-α-IFNγ and PE-α-TNFα. In general, to gate the cytokine or granule producing cells, T cells without stimulation or stained with isotype control antibody were used as negative controls. This gating strategy is applicable for most of the flow cytometric analyses. To detect the MDSCs (myeloid-derived suppressor cells) in the tumour, the percoll isolated leukocyte were stained with α-CD45, α-CD11b and α-Ly6G (Gr1), the CD45^+ population was gated, after which the MDSC population (CD11b^+ Gr1^+) in CD45^+ were gated.
(§1) CD8^+ T cells were pretreated with vehicle (dimethylsulfoxide, DMSO), CP-113,818 or K604. Then the cells were stimulated with 5 μg ml^−1 plate-bound anti-CD3/CD28, and cytokine and cytolytic granule production was studied. Cytotoxicity of OT-I CTLs pretreated with CP-113,818 or K604 or vehicle was also studied.

OT-I CTLs = experiment: CD8+ T-cell (OT-I CTL) cytotoxicity against antigen-pulsed EL-4 cells, LDH release; format: cell-based, mouse; settings: for cytotoxicity of CD8+ T cells: OT-I CTLs pretreated with compound vs vehicle
Protocol: To generate mature Cytotoxic T lymphocytes (CTLs), splenocytes isolated from Acat1^CKO-OT-I mice or WT OT-I mice were stimulated with OVA257-264 (N4) for 3 days in the presence of 10 ng/ml IL-2. Cells were centrifuged and cultured in fresh medium containing 10 ng/ml IL-2 for 2 more days, after which most of the cells in the culture were CTLs. To measure CD8^+ T-cell cytotoxicity, EL-4 cells were pulsed with 2 nM antigenic peptide (N4, A2, T4, G4, R4 or Catnb) for 30 minutes. After washing EL-4 cells and CTLs three times with PBS, we mixed CTLs and antigen-pulsed EL-4 cells (1×10^5) in the killing medium (phenol free-RPMI 1640, 2% FBS), at the ratio of 1:1, 1:2 and 1:5, respectively. After 4 hours, the cytotoxic efficiency was measured by quantifying the release of endogenous lactate dehydrogenase (LDH) from EL-4 cells using a CytoTox 96 Non-Radioactive Cytotoxicity kit (Promega).
as §1
To study ACAT1 inhibitors in cancer immunotherapies in mice, melanoma-bearing mice were treated with a potent ACAT-1 inhibitor, avasimibe (Ava), or DMSO control, and tumour size and survival were studied. A combined therapy (avasimibe and anti-PD-1) or monotherapies (avasimibe or anti-PD-1) were also studied and compared in treating melanoma. In a lung cancer model, Lewis lung carcinoma-bearing mice were treated with avasimibe or DMSO control, and tumour multiplicity and survival were studied. Cytokine productions of stimulated human (h) CD8^+ T cells pretreated with avasimibe, CP-113,818, or DMSO. CTL cytotoxicity after avasimibe treatment was measured by the LDH assay. OT-I CTLs were pretreated with avasimibe or vehicle for 6 h and then incubated with EL-4 cells pulsed with OVA257-264 peptide for 4 h.

human CD8+ T cells = experiment: Human CD8+ T-cell cytokine production; format: cell-based; settings: PBMCs pretreated 12 hours, then plate-bound α-CD3/α-CD28 for 24 hours; vs DMSO
Protocol: Human peripheral blood mononuclear cells (PBMCs) from healthy donators were stimulated with 5 μg/ml PHA (Sigma) for 2 days and then rested for 1 day. Cells were pretreated with vehicle (DMSO), CP113, 818 or avasimibe for 12 hours and then stimulated with plate-bound α-CD3 (5 μg/ml) and α-CD28 (5 μg/ml) antibodies for 24 hours. Intracellular staining and flow cytometry were used to assess cytokines production of CD8^+ T cells. […] A combined therapy (avasimibe and anti-PD-1) or monotherapies (avasimibe or anti-PD-1) were also studied and compared in treating melanoma. In a lung cancer model, Lewis lung carcinoma-bearing mice were treated with avasimibe or DMSO control, and tumour multiplicity and survival were studied. […] CTL cytotoxicity after avasimibe treatment was measured by the LDH assay. OT-I CTLs were pretreated with avasimibe or vehicle for 6 h and then incubated with EL-4 cells pulsed with OVA257-264 peptide for 4 h.

[1] = cited from earlier work
B16F10 melanoma = experiment: Skin melanoma mouse model (B16F10), avasimibe therapy; format: in vivo; settings: melanoma-bearing mice; avasimibe 15 mg/kg intraperitoneally every 2 days from Day 10, vs DMSO control
Protocol: (§2) A combined therapy (avasimibe and anti-PD-1) or monotherapies (avasimibe or anti-PD-1) were also studied and compared in treating melanoma. In a lung cancer model, Lewis lung carcinoma-bearing mice were treated with avasimibe or DMSO control, and tumour multiplicity and survival were studied. […] CTL cytotoxicity after avasimibe treatment was measured by the LDH assay. OT-I CTLs were pretreated with avasimibe or vehicle for 6 h and then incubated with EL-4 cells pulsed with OVA257-264 peptide for 4 h.

[2] = tested on: Lewis lung carcinoma (LLC); experiment: Lewis lung carcinoma (LLC) model, avasimibe therapy; format: in vivo, mouse; settings: avasimibe 15 mg/kg intraperitoneally every 3 days, Day 10 to Day 35, vs DMSO control
Protocol: as §2

CCCCCCCC[C@H](SCCCCCC)C(=O)Nc1c(SC)cc(C)nc1SC [CP-113,818, (S)—N-(2,4-Bis(methylthio)-6-methylpyridin-3-yl)-2-(hexylthio)decanoic acid amide]
cytolytic granule and cytokine productions of CD8+ T cells (CD8+ T cells): augmented | cytotoxicity of CD8+ T cells (OT-I CTLs): augmented

CSc1cc(C)nc(SC)c1NC(=O)CN1CCN(CCSc2nc3ccccc3[nH]2)CC1 [K604, 2-[4-[2-(benzimidazol-2-ylthio)ethyl]piperazin-1yl]-N-[2,4-bis(methylthio)-6-methyl-3-pyridyl]acetamide]
cytolytic granule and cytokine productions of CD8+ T cells (CD8+ T cells): augmented | cytotoxicity of CD8+ T cells (OT-I CTLs): augmented

CC[C@H](C)C(=O)O[C@H]1C[C@@H](C)C=C2C=C[C@H](C)[C@H](CC[C@@H]3C[C@@H](O)CC(=O)O3)[C@H]21 [Lovastatin]
cytolytic granule and cytokine productions of CD8+ T cells (CD8+ T cells): significantly decreased

CCN(CC)CCO[C@H]1CC[C@@]2(C)C(=CC[C@@H]3[C@@H]2CC[C@]2(C)C(=O)CC[C@@H]32)C1 [U18666A]
cytolytic granule and cytokine productions of CD8+ T cells (CD8+ T cells): significantly decreased

CC(C)c1cc(C(C)C)c(CC(=O)NS(=O)(=O)Oc2c(C(C)C)cccc2C(C)C)c(C(C)C)c1 [avasimibe, [2,6-di(propan-2-yl)phenyl] N-[2-[2,4,6-tri(propan-2-yl)phenyl]acetyl]sulfamate]
cytokine production of human CD8+ T cells (human CD8+ T cells): enhanced | well tolerated dose ([1]; adult human subjects, four times daily (i.e., 3000 mg/day), Kharbanda et al (2005)): ≥ 750 mg | human safety profile ([1]; clinical trials for treating atherosclerosis): good human safety profile | survival time (B16F10 melanoma): prolonged | tumour growth (B16F10 melanoma): inhibited | antitumor effect in Lewis lung carcinoma (tumour multiplicity and survival) [2]: good antitumor effect | effector function of mouse CD8+ T cells ex vivo (OT-I CTLs; OT-I CTLs pretreated with avasimibe or vehicle for 6 h, EL-4 cells pulsed with OVA257-264 for 4 h, LDH assay): enhance

From patent US11571400B2, “ACAT1 inhibitors for treating cancer” (Shanghai Institutes for Biological Sciences, Chinese …, priority 2016, dated 2023)
